{"source": "patent US11440935B2", "about": "“3″,5″-dimethoxybenzoyl-3′-amino-3′-deoxy adenosine-5′-triphosphates and pharmaceutical uses thereof” (Danmir Therapeutics, LLC, priority 2018, dated 2022)", "key": {"P2Y1": {"target": "T1, P2Y1 (Homo sapiens, UniProt P47900)", "T1 construct": "expressed in transfected cells", "T1 sequence (P47900 whole entry)": "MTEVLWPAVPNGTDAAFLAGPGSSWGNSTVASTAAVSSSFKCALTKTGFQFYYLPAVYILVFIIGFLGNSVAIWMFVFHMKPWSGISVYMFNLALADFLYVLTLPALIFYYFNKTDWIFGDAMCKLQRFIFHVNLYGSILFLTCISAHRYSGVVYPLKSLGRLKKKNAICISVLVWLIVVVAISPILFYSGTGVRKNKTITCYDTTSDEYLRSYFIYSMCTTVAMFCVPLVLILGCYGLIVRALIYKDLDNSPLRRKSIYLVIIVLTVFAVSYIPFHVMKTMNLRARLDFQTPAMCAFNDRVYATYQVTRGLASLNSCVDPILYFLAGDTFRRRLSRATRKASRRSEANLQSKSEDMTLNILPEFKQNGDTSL", "test": "PDSP functional assay in vitro (PRESTO-Tango), agonist/antagonist", "format": "cell-based", "experimental": "(§1) The assays were carried out utilizing the method set forth in Kroeze et al., PRESTO-Tango as an open-source resource for interrogation of the druggable human GPCRome, Nat. Struct. Mol. Biol. 2015 May; 22(5):362-9."}, "P2Y12": {"target": "T2, P2Y12 (Homo sapiens, UniProt Q9H244)", "T2 construct": "expressed in transfected cells", "T2 sequence (Q9H244 whole entry)": "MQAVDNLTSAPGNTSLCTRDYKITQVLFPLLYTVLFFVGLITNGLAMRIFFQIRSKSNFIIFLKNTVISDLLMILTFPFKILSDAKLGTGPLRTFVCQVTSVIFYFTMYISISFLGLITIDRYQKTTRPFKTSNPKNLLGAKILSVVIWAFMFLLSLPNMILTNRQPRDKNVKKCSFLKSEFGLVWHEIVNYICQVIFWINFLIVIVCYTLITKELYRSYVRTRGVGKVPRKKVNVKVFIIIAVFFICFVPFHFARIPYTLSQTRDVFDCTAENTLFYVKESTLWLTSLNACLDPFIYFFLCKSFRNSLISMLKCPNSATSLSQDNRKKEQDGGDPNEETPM", "test": "PDSP functional assay in vitro (PRESTO-Tango), agonist/antagonist", "format": "cell-based", "experimental": "as §1"}, "P2Y13": {"target": "T3, P2Y13 (Homo sapiens, UniProt Q9BPV8)", "T3 construct": "expressed in transfected cells", "T3 sequence (Q9BPV8 1-354)": "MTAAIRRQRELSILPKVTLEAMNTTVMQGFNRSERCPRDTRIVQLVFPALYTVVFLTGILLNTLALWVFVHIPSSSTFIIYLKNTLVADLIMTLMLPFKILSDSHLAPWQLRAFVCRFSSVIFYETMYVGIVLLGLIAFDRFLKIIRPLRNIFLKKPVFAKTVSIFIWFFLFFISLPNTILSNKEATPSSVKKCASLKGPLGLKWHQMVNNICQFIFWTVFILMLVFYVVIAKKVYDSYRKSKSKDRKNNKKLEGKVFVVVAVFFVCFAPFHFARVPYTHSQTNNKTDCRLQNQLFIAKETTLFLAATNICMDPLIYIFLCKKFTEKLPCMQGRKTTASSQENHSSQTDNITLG", "test": "PDSP functional assay in vitro (PRESTO-Tango), agonist/antagonist", "format": "cell-based", "experimental": "as §1"}, "P2Y14": {"target": "T4, P2Y14 (Homo sapiens, UniProt Q15391)", "T4 construct": "expressed in transfected cells", "T4 sequence (Q15391 1-338)": "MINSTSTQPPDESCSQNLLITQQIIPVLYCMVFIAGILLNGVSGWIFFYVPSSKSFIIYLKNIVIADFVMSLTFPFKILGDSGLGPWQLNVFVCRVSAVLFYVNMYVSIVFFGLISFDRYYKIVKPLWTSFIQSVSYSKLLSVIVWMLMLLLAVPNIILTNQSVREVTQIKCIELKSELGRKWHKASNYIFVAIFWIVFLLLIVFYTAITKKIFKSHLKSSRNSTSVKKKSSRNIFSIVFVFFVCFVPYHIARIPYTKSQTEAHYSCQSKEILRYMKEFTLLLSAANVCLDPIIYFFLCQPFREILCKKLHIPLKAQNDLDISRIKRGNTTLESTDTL", "test": "PDSP functional assay in vitro (PRESTO-Tango), agonist/antagonist", "format": "cell-based", "experimental": "as §1"}, "P2Y2": {"target": "T5, P2Y2 (Homo sapiens, UniProt P41231)", "T5 construct": "expressed in transfected cells", "T5 sequence (P41231 whole entry)": "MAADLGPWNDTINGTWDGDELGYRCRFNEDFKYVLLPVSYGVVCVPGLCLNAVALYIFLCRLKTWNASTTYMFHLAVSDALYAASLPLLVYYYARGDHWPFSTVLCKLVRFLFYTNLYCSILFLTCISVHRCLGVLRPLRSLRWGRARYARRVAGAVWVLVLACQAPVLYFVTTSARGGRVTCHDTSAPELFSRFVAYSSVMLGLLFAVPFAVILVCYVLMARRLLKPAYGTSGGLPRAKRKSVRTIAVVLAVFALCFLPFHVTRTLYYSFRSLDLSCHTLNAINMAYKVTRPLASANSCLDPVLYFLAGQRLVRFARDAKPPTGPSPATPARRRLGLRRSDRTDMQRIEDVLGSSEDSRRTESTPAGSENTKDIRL", "test": "PDSP functional assay in vitro (PRESTO-Tango), agonist/antagonist", "format": "cell-based", "experimental": "as §1"}, "P2Y4": {"target": "T6, P2Y4 (Homo sapiens, UniProt P51582)", "T6 construct": "expressed in transfected cells", "T6 sequence (P51582 whole entry)": "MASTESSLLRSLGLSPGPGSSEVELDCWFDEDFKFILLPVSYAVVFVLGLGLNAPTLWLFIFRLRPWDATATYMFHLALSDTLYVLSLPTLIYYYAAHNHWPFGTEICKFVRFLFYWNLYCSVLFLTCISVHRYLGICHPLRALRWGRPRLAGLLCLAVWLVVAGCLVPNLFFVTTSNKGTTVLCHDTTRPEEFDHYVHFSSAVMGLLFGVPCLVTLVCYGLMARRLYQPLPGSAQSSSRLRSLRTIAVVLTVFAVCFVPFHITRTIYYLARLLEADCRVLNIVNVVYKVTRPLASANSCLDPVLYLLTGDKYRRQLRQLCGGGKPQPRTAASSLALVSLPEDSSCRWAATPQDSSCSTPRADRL", "test": "PDSP functional assay in vitro (PRESTO-Tango), agonist/antagonist", "format": "cell-based", "experimental": "as §1"}, "P2Y6": {"target": "T7, P2Y6 (Homo sapiens, UniProt Q15077)", "T7 construct": "expressed in transfected cells", "T7 sequence (Q15077 whole entry)": "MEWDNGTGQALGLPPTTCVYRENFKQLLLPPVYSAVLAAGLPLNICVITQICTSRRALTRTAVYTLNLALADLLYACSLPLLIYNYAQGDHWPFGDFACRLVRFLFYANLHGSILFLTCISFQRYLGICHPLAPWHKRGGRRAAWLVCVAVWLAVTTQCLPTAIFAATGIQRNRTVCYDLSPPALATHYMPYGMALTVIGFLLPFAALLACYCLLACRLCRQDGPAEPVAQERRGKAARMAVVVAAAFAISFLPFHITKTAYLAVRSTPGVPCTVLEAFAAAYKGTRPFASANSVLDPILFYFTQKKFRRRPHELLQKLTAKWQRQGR", "test": "PDSP functional assay in vitro (PRESTO-Tango), agonist/antagonist", "format": "cell-based", "experimental": "as §1"}, "conscious guinea-pigs [1]": {"system": "conscious guinea-pigs", "test": "Aerosolized ATP-induced cough in conscious free moving guinea-pigs", "format": "in vivo, guinea-pig", "experimental": "(§2) This study was performed in 6 guinea-pigs. The housing room was constantly ventilated, and the temperature kept at ˜23° C. After quarantine, the animals were individually placed in a whole-body, unrestrained, plethysmograph chamber (model PLY3215, Buxco Electronics Inc., Troy, N.Y.) for ˜40 min once a day for two continuous days before the cough test. All GPs were weighed before the cough study.\n(§3) ATP was purchased from Sigma-Aldrich (Cat #A2383-10G). Solutions of ATP used for aerosol challenge were freshly made just prior to use by dissolving the powder in 0.9% saline (NaCl) solution. Solutions of DT-0111 used for aerosol administration were freshly made by dissolving the powder in 0.9% saline (NaCl) solution.\n(§4) A plethysmograph chamber was continuously flushed with normoxic (21% O2 and 79% N2) room air at 2 L/min. The same amount of air was drawn through the chamber base outlets using a Buxco bias flow regulator to keep the chamber bias flow balanced. ATP or DT solution was aerosolized by using a vibrating mesh nebulizer (Ireland Ltd., Galway Ireland, AG-AL1100). The output rate of delivered aerosol was around 0.5 ml/min with droplet size (volume median diameter) at 2.5-4.0 μm (manufacture's indications). The aerosol was mixed with airflow and directly delivered into the plethysmograph chamber. The latter was placed in a standard chemical fume hood (size: 3×6 ft) installed in a standard laboratory.\nA guinea-pig was placed in the chamber again after adaptation. Following stabilization, #1 guinea-pig was exposed to aerosolized ATP at 6 mg/ml, 24 mg/ml, and then 48 mg/ml for 5 min with an interval of 30 min. The remaining animals (#2-#6 guinea-pigs) were exposed to aerosolized ATP at 48 mg/ml for 5 min. Approximately 140 min later, the same dose of ATP was repeated immediately after DT-0111 aerosol inhalation (12 mg/ml for 5 min). […] The cough sound and behavioral activities were continuously monitored and recorded before (for 3 min), during 5 min aerosol delivery, and 20 min after cessation of the delivery.\nSetup of the cough recording system. The top of the plethysmograph chamber was connected with a plastic tube that was attached by the nebulizer. Normoxic air driven by the nebulizer controller was flowed into the chamber and sucked out by the bias flow regulator with the in and out flow volume balanced (2.0 L/min). To detect cough, a microphone system was mounted in the roof of the chamber to record sound; a video camera was placed outside of the chamber to monitor animal body posture; and a Buxco pneumotachograph (differential pressure transducer) attached to the chamber to record airflow. All signals generated by video camera, microphone, and pressure transducer were amplified and recorded continuously by PowerLab/8 sp (model ML 785; ADInstruments Inc., Colorado Springs, Colo.) and a computer with the LabChart Pro 7 software.\nCough count. A typical cough response, as reported before (Girard et al., Eur Respir J, 1995; Blasko et al., American Journal of Advanced Drug Delivery. 5:131-138, 2017; Corboz et al., Journal of Pharmacology and Experimental Therapeutics. 363: 348-357, 2017), was defined by the simultaneous appearance of: 1) a transient and great change in the airflow (a rapid inspiration followed by rapid expiration); 2) a typical cough sound with the peak power density at 1-2 kHz in frequency spectrum (sneeze at 3.5-6.5 kHz); and 3) animal body (head) posture and movement."}, "conscious guinea-pigs [2]": {"system": "conscious guinea-pigs", "test": "Aerosolized ATP-induced bronchoconstriction in conscious guinea-pigs (sRaw)", "format": "in vivo, guinea-pig", "settings": "n=6", "experimental": "as §2, §3\nas §4, with “The aerosol was mixed with airflow and directly delivered into the plethysmograph chamber. The latter was placed in a standard chemical fume hood (size: 3×6 ft) installed in a standard laboratory.” left out\nThe results are expressed as percent change in airway pressure (sRaw). n=6; * p<0.05, vs. ATP 0.0 mg/ml; †p<0.05, DT-0111 vs. Ctrl at the same ATP dose."}, "[3]": {"settings": "DT (12 mg/ml, 5 min) + ATP (48 mg/ml), per guinea-pig"}, "[4]": {"settings": "aerosolized DT-0111 12 mg/ml, n=5"}}, "note": "Several values for one entry are separate records, joined by “and”; a condition that tells them apart may be missing. Equal entries are not always repeated."}
{"substance": "Sodium 3′-N-(3,5-dimethoxybenzoyl)-3′-deoxy-β-D-adenosine 5′-triphosphate [DT-0111]", "values": [{"measurement": "agonist or antagonist action at receptor", "setting": "P2Y1", "value": "does not act as an agonist or antagonist"}, {"measurement": "agonist or antagonist action at receptor", "setting": "P2Y12", "value": "does not act as an agonist or antagonist"}, {"measurement": "agonist or antagonist action at receptor", "setting": "P2Y13", "value": "does not act as an agonist or antagonist"}, {"measurement": "agonist or antagonist action at receptor", "setting": "P2Y14", "value": "does not act as an agonist or antagonist"}, {"measurement": "agonist or antagonist action at receptor", "setting": "P2Y2", "value": "does not act as an agonist or antagonist"}, {"measurement": "agonist or antagonist action at receptor", "setting": "P2Y4", "value": "does not act as an agonist or antagonist"}, {"measurement": "agonist or antagonist action at receptor", "setting": "P2Y6", "value": "does not act as an agonist or antagonist"}, {"measurement": "Bout Cough T1#", "setting": "conscious guinea-pigs [1]; [3]", "value": 0}, {"measurement": "Bout Cough T2#", "setting": "conscious guinea-pigs [1]; [3]", "value": 0}, {"measurement": "Individual Cough", "setting": "conscious guinea-pigs [1]; DT (12 mg/ml, 5 min) + ATP (48 mg/ml), per guinea-pig, listed as DT", "value": "0 (2×) and 1 (2×) and 7"}, {"measurement": "effect on ATP-induced bout of coughs", "setting": "conscious guinea-pigs [1]; [4]", "value": "blocked the bout of coughs in all tested animals"}, {"measurement": "effect on ATP-induced individual coughs", "setting": "conscious guinea-pigs [1]; [4]", "value": "little effect on individual coughs"}, {"measurement": "cough evoked by the compound per se", "setting": "conscious guinea-pigs [1]; aerosolized DT-0111 alone", "value": "did not evoke any cough"}, {"measurement": "effect on aerosolized ATP-induced bronchoconstriction", "setting": "conscious guinea-pigs [2]", "value": "Suppresses"}]}
